Data from patent US20110039763A1, “TARGETED ANTIMICROBIAL MOIETIES” (C3 JIAN, INC., priority 2009, published 2011).

Tests used:
[1] = test system: microorganisms; assay: Peptide activities: targeting/binding, antimicrobial, growth or phenotype altering (Tables 7, 8); assay type: cell-based; settings: peptides having multiple activities
Source text: In certain embodiments, peptides described herein can have multiple activities. Thus for example, a peptide can have both binding/targeting activity and antimicrobial activity. Such peptides can be used, e.g., in a chimeric construct, for any or all of these properties. Thus, for example, a peptide designated “B” in Table 8 can be used as a targeting peptide. If it is also designated G or M it can also be used for antimicrobial activity.
Table 8. Peptides Having Multiple Activities. B: Targeting/Binding Activity; M: Antimicrobial Activity; G: GROWTH or Phenotype Altering.

[2] = test system: microorganisms; assay: Morphology, biofilm and growth disrupting peptides (Table 5); assay type: cell-based; set-up: key: A: Peptide aggregates; B: Less hyphal formation; Clumps; Diffuse clumps and small polyps; F: Diffuse growth; H: Thin; I: Growth inhibition; Microcolony formation; Rippled; Small polyps; Thick; W: Halo formation on top, microlonies on bottom
Source text: In certain embodiments peptides that induce alterations in phenotype or other biological activities can also be used as antimicrobial effector moieties.

Substance | Activities [1] | Organism, effect: M. luteus [2] | Organism, effect: S. epidermidis [2] | Organism, effect: C. jeikeium [2] | Organism, effect: C. albicans ([2]; C. albicans) | Organism, effect: C. jejuni [2] | Organism, effect: MRSA [2] | Organism, effect: P. aeruginosa [2] | Organism, effect: S. pneumoniae [2] | Organism, effect: B. subtilis ([2]; B. subtilis) | Organism, effect: E. coli [2] | Organism, effect: E. faecalis [2]
PF-125: peptide having multiple activities (chain 1 YVVGALVILAVAGLIYSMLRKA; chain 2 YVVGALVILAVAGLIYSMLRKA; Peptide with targeting and/or antimicrobial activity) | G B | M. luteus (C) | S. epidermidis (D) |  |  |  |  |  |  |  |  | 
PF-139: peptide having multiple activities (chain 1 ALSKPAIQARTLCRRQDPP; chain 2 ALSKPAIQARTLCRRQDPP; Peptide with targeting and/or antimicrobial activity) | G B | M. luteus (C) | S. epidermidis (M) | C. jeikeium (R) |  |  |  |  |  |  |  | 
PF-140: peptide having multiple activities (chain 1 FHRRVIRASEWALTTRSFSTPLRSAAR; chain 2 FHRRVIRASEWALTTRSFSTPLRSAAR; Peptide with targeting and/or antimicrobial activity) | G B | M. luteus (R) | S. epidermidis (D) | C. jeikeium (D) | C. albicans (B) | C. jejuni (D) | MRSA (M) | P. aeruginosa (A) | S. pneumoniae (D) |  |  | 
PF-145: peptide having multiple activities (chain 1 GIVLTGRAGLVSGACSMALGVGLG; chain 2 GIVLTGRAGLVSGACSMALGVGLG; Peptide with targeting and/or antimicrobial activity) | G B | M. luteus (A) | S. epidermidis (D) | C. jeikeium (R) |  | C. jejuni (R) | MRSA (M) |  | S. pneumoniae (R) | B. subtilis (C) |  | 
PF-157: peptide having multiple activities (HTAVVWLAGVSGCVALSHCEPA; Peptide with targeting and/or antimicrobial activity) | G B |  | S. epidermidis (M) |  |  |  |  |  |  |  |  | 
PF-178: peptide having multiple activities (EVYSSPTNNVAITVQNN; Peptide with targeting and/or antimicrobial activity) | G B |  | S. epidermidis (D) |  |  |  | MRSA (M) |  | S. pneumoniae (D) |  | E. coli (C) | 
PF-190: peptide having multiple activities (HFILRKPLLFMIHSLKTGPLDRF; Peptide with targeting and/or antimicrobial activity) | G B |  | S. epidermidis (C) | C. jeikeium (R) |  |  |  |  |  |  |  | 
PF-196: peptide having multiple activities (TTARYIRRQCHTSITPLSQG; Peptide with targeting and/or antimicrobial activity) | G B |  | S. epidermidis (C) | C. jeikeium (R) |  |  |  |  |  |  |  | 
PF-203: peptide having multiple activities (SWKCHHLAI; Peptide with targeting and/or antimicrobial activity) | G B |  | S. epidermidis (A) | C. jeikeium (R) |  |  |  |  |  |  |  | 
PF-347: peptide having multiple activities (GIFTGVTVVVSLKHC; Peptide with targeting and/or antimicrobial activity) | G B |  | S. epidermidis (C) |  |  |  | MRSA (C) |  |  |  | E. coli (C) | E. faecalis (C)
PF-354: peptide having multiple activities (FTFSKCRASNGRGFGTLWL; Peptide with targeting and/or antimicrobial activity) | G B |  |  |  |  |  | MRSA (H) |  |  |  |  | 
PF-355: peptide having multiple activities (chain 1 WIAIGLLLYFSLKNQ; chain 2 WIAIGLLLYFSLKNQ; Peptide with targeting and/or antimicrobial activity) | G B |  | S. epidermidis (C) |  |  | C. jejuni (D) | MRSA (A) | P. aeruginosa (A) | S. pneumoniae (D) |  | E. coli (C) | E. faecalis (D)
PF-356: peptide having multiple activities (chain 1 VSIKIGAIVIGMIGLMELLTE; chain 2 VSIKIGAIVIGMIGLMELLTE; Peptide with targeting and/or antimicrobial activity) | G B |  | S. epidermidis (S) |  |  | C. jejuni (D) | MRSA (C) | P. aeruginosa (A) | S. pneumoniae (R) |  |  | E. faecalis (R)
PF-357: peptide having multiple activities (chain 1 MLTIIIGFIFWTMTLMLGYLIGEREGRKHE; chain 2 MLTIIIGFIFWTMTLMLGYLIGEREGRKHE; Peptide with targeting and/or antimicrobial activity) | G B | M. luteus (C) | S. epidermidis (M) |  |  |  | MRSA (M) |  | S. pneumoniae (M) |  |  | 
PF-374: peptide having multiple activities (chain 1 HLFFVKGMFILCQKNQINDE; chain 2 HLFFVKGMFILCQKNQINDE; Peptide with targeting and/or antimicrobial activity) | G B |  | S. epidermidis (C) |  |  |  | MRSA (M) |  |  |  | E. coli (C) | E. faecalis (C)
PF-376: peptide having multiple activities (chain 1 MTVFEALMLAIAFATLIVKISNKNDKK; chain 2 MTVFEALMLAIAFATLIVKISNKNDKK; Peptide with targeting and/or antimicrobial activity) | G B |  | S. epidermidis (C) |  |  |  | MRSA (C) |  |  |  | E. coli (C) | E. faecalis (C)
PF-379: peptide having multiple activities (chain 1 VFVVLFIIYLASKLLTKLFPIKK; chain 2 VFVVLFIIYLASKLLTKLFPIKK; Peptide with targeting and/or antimicrobial activity) | G B |  | S. epidermidis (C) |  |  |  | MRSA (C) |  |  |  | E. coli (C) | E. faecalis (C)
PF-380: peptide having multiple activities (chain 1 KKIIPLITLFVVTLVG; chain 2 KKIIPLITLFVVTLVG; Peptide with targeting and/or antimicrobial activity) | G B |  | S. epidermidis (C) |  |  | C. jejuni (D) | MRSA (D) | P. aeruginosa (A) | S. pneumoniae (D) |  | E. coli (C) | E. faecalis (C)
PF-386: peptide having multiple activities (chain 1 FTLTLITTIVAILNYKDKKK; chain 2 FTLTLITTIVAILNYKDKKK; Peptide with targeting and/or antimicrobial activity) | G B |  | S. epidermidis (C) |  |  |  | MRSA (C) |  |  |  | E. coli (C) | E. faecalis (C)
PF-398: peptide having multiple activities (chain 1 ILVVLAGILLVVLSYVGISKFKMNC; chain 2 ILVVLAGILLVVLSYVGISKFKMNC; Peptide with targeting and/or antimicrobial activity) | G B |  | S. epidermidis (C) |  |  |  | MRSA (C) |  |  |  | E. coli (C) | E. faecalis (C)
PF-399: peptide having multiple activities (chain 1 FPIISALLGAIICIAIYSFIVNRKA; chain 2 FPIISALLGAIICIAIYSFIVNRKA; Peptide with targeting and/or antimicrobial activity) | G B |  | S. epidermidis (C) |  |  |  | MRSA (C) |  |  |  | E. coli (C) | E. faecalis (C)
